# Laboratory results: PubChem BioAssay (NCI)
# Values joined by “and” are separate entries in the source; they are usually repeats but may differ in a detail not shown here. Equal values may be shown once.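 A five-concentration, 48-hour dose response in 96-well plates underlies each endpoint, interpolated linearly between surrounding concentrations. GI50 = concentration required for 50% inhibition of growth. TGI marks complete inhibition of growth.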
# Experiments:
# Assay in all cases: growth of human tumour cells (NCI), 48 h
# [1] = test system: SN12C renal
# [2] = test system: UACC-257 melanoma
# [3] = test system: OVCAR-8 ovarian
# [4] = test system: HOP-92 NSCLC
# [5] = test system: HCT-15 colon
# [6] = test system: U251 CNS
# [7] = test system: A498 renal
# [8] = test system: MDA-MB-231 breast
# [9] = test system: HS 578T breast
# [10] = test system: MDA-MB-435
Structure (SMILES),TGI [1],TGI [2],TGI [3],TGI [4],TGI [5],TGI [6],GI50 [1],GI50 [2],GI50 [3],GI50 [4],GI50 [5],GI50 [7],TGI [7],GI50 [6],GI50 [8],TGI [8],GI50 [9],TGI [9],GI50 [10],TGI [10]
CC1(C)Cc2nnsc2C2=C1C(=O)CCS2,> 100 µM,> 100 µM,> 100 µM,> 100 µM,> 100 µM,> 100 µM,,,,,,,,,,,,,,
C[CH2][Ge]([CH2]C)([CH2]C)[O]C(=O)C([O][Ge]([CH2]C)([CH2]C)[CH2]C)c1ccccc1 (centres undefined),82.8 µM,58.4 µM,97.9 µM,45.9 µM,30 µM,41.4 µM,18.2 µM,15.2 µM,18.2 µM,4.32 µM,14 µM,19.2 µM,67.5 µM,17.2 µM,,,,,,
COC(=O)c1ccc(NC(N)=NCC(C)(C)COc2ccc(C(F)(F)F)cc2)nc1,3.41 µM,3.27 µM,,2.57 µM,3.08 µM,3.05 µM,1.79 µM,1.69 µM,,1.23 µM,1.56 µM,1.94 µM,5.82 µM,1.61 µM,1.7 µM,3.39 µM,1.97 µM,4.33 µM,,
CN(C)CCC(/C=C/c1ccccc1)=N\Nc1ccc(Cl)cc1,7.03 µM,14.5 µM,14 µM,8.82 µM,15.2 µM,5.51 µM,,,,,,,21.8 µM,,,,,,,
Cc1cc(Cl)ccc1N1C(=O)C(=O)C(c2nc3ccccc3o2)C(=O)C1=O,> 100 µM,> 100 µM,> 100 µM,> 100 µM,> 100 µM,> 100 µM,,,,,,,> 100 µM,,,,,,,
Cc1cc(Cl)cc2c1NC(=O)C2(O)CC(=O)c1ccc(F)cc1 (centres undefined),> 100 µM,> 100 µM,> 100 µM,> 100 µM,> 100 µM,> 100 µM,,,,,,,,,,,,,,
CN(C)CCC(=O)N1CCc2c([nH]c3ccccc23)C1c1cccnc1 (centres undefined),> 100 µM,> 100 µM,> 100 µM,> 100 µM,> 100 µM,> 100 µM,,,,,,,> 100 µM,,,,,,,
CCCC(=O)O[C@]1(C)CC[C@@H]2[C@H]3[C@@H]1[C@@H]1C/C(C)=C\CC[C@](C)(OC(=O)[C@@H]2C)[C@H]3O1,> 100 µM,> 100 µM,> 100 µM,,> 100 µM,> 100 µM,47.9 µM,43.3 µM,47.6 µM,,44.4 µM,,,41.8 µM,25.5 µM,94.4 µM,40 µM,> 100 µM,32.6 µM,> 100 µM
Cc1nc2ccccc2c(/C=C/c2ccccc2)c1C(=O)/C=C/c1ccc(Cl)cc1,4.39 µM,,,,,2.88 µM,1.71 µM,,,,,,,1.51 µM,1.46 µM,4 µM,,,,
COc1cc2c(c(OC)c1OC)C(=O)c1c-2n(CCCN=[N+]=[N-])c(=O)c2cc([N+](=O)[O-])ccc12,> 100 µM,> 100 µM,> 100 µM,,> 100 µM,> 100 µM,> 100 µM,> 100 µM,72.3 µM,,> 100 µM,14 µM,54.1 µM,58 µM,35.8 µM,> 100 µM,25.3 µM,> 100 µM,> 100 µM,> 100 µM
Clc1ccc(-c2nc(C(Cl)Cl)nc3cc(-c4ccccc4)nn23)cc1,> 50 µM,,> 50 µM,> 50 µM,> 50 µM,> 50 µM,> 50 µM,,1.44 µM,1.25 µM,1.3 µM,0.912 µM,2.21 µM,1.12 µM,1.8 µM,> 50 µM,1.38 µM,> 50 µM,1.8 µM,> 50 µM
COc1cccc2c1C(=O)c1c(O)c3c(c(O)c1C2=O)C[C@@](O)(C(C)=O)C[C@@H]3OC1CC(O)C(O)C(C)O1 (some centres undefined),8.75 µM and 17.5 µM,,,9.67 µM and 18.8 µM,9.84 µM and 14.6 µM,,,,,,,,9.01 µM,,,> 100 µM,,6.93 µM,,27.7 µM
Cn1ccc2c3c(=O)cc[nH]c3ccc21,> 100 µM,> 100 µM,> 100 µM,> 100 µM,> 100 µM,> 100 µM,> 100 µM,> 100 µM,> 100 µM,69.2 µM,> 100 µM,,,> 100 µM,> 100 µM,> 100 µM,20.2 µM,> 100 µM,> 100 µM,> 100 µM
COc1ccc(C(=O)C/C(=N/NC(N)=S)C(=O)Nc2ccccc2)cc1,> 100 µM,> 100 µM,> 100 µM,,> 100 µM,> 100 µM,,,,,,,> 100 µM,,,,,,,
Oc1cc2c(cc1C(c1ccc3c(c1)OCO3)N1CCN(C(c3ccc4c(c3)OCO4)c3cc4c(cc3O)OCO4)CC1)OCO2 (centres undefined),31 µM,33.4 µM,29.9 µM,78.3 µM,20.3 µM,28.7 µM,,,,,,,,,,29.1 µM,,30.5 µM,,35 µM
Cc1ccc(S(=O)(=O)N[C@@H](Cc2ccccc2)C(=O)CCl)cc1,,> 100 µM,> 100 µM,12 µM,27.5 µM,24.5 µM,,43.2 µM,17.8 µM,2.19 µM,10.8 µM,,,9.3 µM,,,21.2 µM,64.1 µM,,30.7 µM
NC1=NCC(c2ccccn2)C1c1ccc(F)cc1 (centres undefined),> 100 µM,> 100 µM,> 100 µM,> 100 µM,,> 100 µM,,,,,,,> 100 µM,,,,,,,
CCP(C)(C)=O,> 100 µM,> 100 µM,> 100 µM,,> 100 µM,> 100 µM,,,,,,,> 100 µM,,,,,,,
CCCCCCCC(=O)NS(=O)(=O)c1ccccc1,,,> 100 µM,,> 100 µM,> 100 µM,,,,,,,> 100 µM,,,> 100 µM,,> 100 µM,,> 100 µM
NC(=NCCO)c1ccc(N2CCCN(c3ccc(C(N)=NCCO)cc3)CC2)cc1,> 100 µM,> 100 µM,> 100 µM,,> 100 µM,> 100 µM,8.8 µM,> 100 µM,> 100 µM,,> 100 µM,,,> 100 µM,> 100 µM,> 100 µM,,,> 100 µM,> 100 µM

Structure (SMILES),TGI [1],TGI [2],TGI [3],TGI [4],TGI [5],TGI [6],GI50 [1],GI50 [2],GI50 [3],GI50 [4],GI50 [5],GI50 [7],TGI [7],GI50 [6],GI50 [8],TGI [8],GI50 [9],TGI [9],GI50 [10],TGI [10]
Cc1cccc(C)c1NC(=O)CCCC(=O)C(C#N)c1ccc(Cl)cc1 (centres undefined),> 100 µM,> 100 µM,> 100 µM,> 100 µM,> 100 µM,> 100 µM,,,,,,,> 100 µM,,,,,,,
COC1C(O)CC(OC2CC(OC3CC(O[C@@H]4C(=O)c5c(cc6cc(OC7CC(OC8CC(O)C(O)C(C)O8)C(O)C(C)O7)c(C)c(O)c6c5O)C[C@H]4[C@H](OC)C(=O)[C@@H](O)[C@@H](C)O)OC(C)C3O)OC(C)C2O)OC1C (some centres undefined),> 60.5 µM,0.931 µM,> 100 µM,1.06 µM,22 µM,> 9.45 µM,,,,,,< 0.01 µM,0.0827 µM,,,> 100 µM,,,,
CCCC(CCC)Oc1ccc(CCCC2=C(O)c3ccccc3C(=O)C2=O)cc1,22.5 µM,43.1 µM,69.7 µM,,15 µM,17.5 µM,6.79 µM,7.07 µM,10.2 µM,,3.76 µM,7.21 µM,20.1 µM,5.37 µM,12.3 µM,28.9 µM,11.7 µM,37.4 µM,4.72 µM,17.6 µM
COc1ccc(C2N3CCCCC3[C@@H]3c4[nH]c5ccccc5c4CCN23)c(OC)c1 (some centres undefined),33.8 µM,72.4 µM,> 100 µM,> 100 µM,> 100 µM,> 100 µM,,,,,,,30.1 µM,,,,,,,
COC(=O)[C@@H]1[C@H](O)[C@H](C)[C@H](O)[C@H](C)/C=C\C=C(C)C(=O)Nc2c(C)c(OC(C)=O)c3c(c2O)C(=O)C(C)=C2OCOC(=C23)C(C)=C[C@@](C)(O)[C@H](O)[C@@H](C)[C@H]1OC(C)=O,> 100 µM,76.6 µM,> 100 µM,> 100 µM,,> 100 µM,,,,,,,,,,> 100 µM,,> 100 µM,,
O=C([CH-]C(=O)c1ccccc1)c1ccccc1.[CH3-].[CH3-].[CH3-].[Sn+4],> 100 µM,60.8 µM,53.8 µM,67.3 µM,27.3 µM,52 µM,17.3 µM,22.2 µM,8.25 µM,27.8 µM,5.51 µM,35.4 µM,> 100 µM,6.87 µM,,,,,,
Cc1cccc(Cl)c1NC(=O)c1cccc([N+](=O)[O-])c1O,> 100 µM,> 100 µM,> 100 µM,69.6 µM,> 100 µM,> 100 µM,,,,,,,> 100 µM,,,,,,,
O=[N+]([O-])c1ccc2nc3ccscc-3c2c1,,> 100 µM,,25.7 µM,> 100 µM,85.3 µM,,,,,,,53.3 µM,,,,,,,
Cc1ccccc1NC(=O)C(=O)CC(=O)C1CCOC1=O (centres undefined),> 100 µM,> 100 µM,> 100 µM,> 100 µM,> 100 µM,> 100 µM,,,,,,,> 100 µM,,,,,,,
CCOC(=O)N1CCc2cc(OC)c(OC)cc2/C1=C/c1ccc(OC)c(OC)c1,> 100 µM,> 100 µM,,> 100 µM,> 100 µM,> 100 µM,,,,,,,> 100 µM,,,,,,,
O=c1oc2c(cc1-c1ccccc1)C(O)Oc1ccccc1-2 (centres undefined),> 100 µM,35.4 µM,> 100 µM,,> 100 µM,> 100 µM,20.5 µM,12.4 µM,6.89 µM,,5.04 µM,7.98 µM,44.7 µM,7.92 µM,15.5 µM,> 100 µM,13.4 µM,> 100 µM,1.62 µM,> 100 µM
CC(=O)Oc1ccccc1C(=O)NCCC[Se]C#N,12.4 µM,,4.1 µM,3.05 µM,5.06 µM,2.95 µM,3.2 µM,,1.95 µM,1.49 µM,2.08 µM,2.1 µM,4.08 µM,1.6 µM,,,2.12 µM,6.8 µM,2.19 µM,5.16 µM
CC(C)(C)c1cc(-c2c3nc(c(-c4cc(C(C)(C)C)cc(C(C)(C)C)c4)c4ccc([nH]4)c(-c4cc(C(C)(C)C)cc(C(C)(C)C)c4)c4nc(c(-c5cc(C(C)(C)C)cc(C(C)(C)C)c5)c5ccc2[nH]5)C=C4)C=C3)cc(C(C)(C)C)c1,> 100 µM,> 100 µM,> 100 µM,> 100 µM,> 100 µM,> 100 µM,,,,,,,> 100 µM,,,,,,,
Cc1cccc2cc3cccc(C(=O)NCCN(C)C)c3nc12,1.02 µM,1.46 µM,5.58 µM,1.38 µM,1.5 µM,2.15 µM,,,,,,,0.192 µM,,,,,,,
NC(=S)N/N=C/c1ccc(OC(=O)COc2ccccc2)cn1,> 100 µM,88.9 µM,> 100 µM,,> 100 µM,> 100 µM,5.3 µM,14.7 µM,3.26 µM,,20.2 µM,14.8 µM,81 µM,4.15 µM,8.27 µM,> 100 µM,68.4 µM,> 100 µM,10.9 µM,> 100 µM
COc1cc2oc(-c3cccc(C(=O)Nc4ccc(C)cc4)c3)cc(=O)c2c(OC)c1OC,> 100 µM,4.5 µM,> 100 µM,5.46 µM,> 100 µM,> 100 µM,1.91 µM,1.92 µM,2.9 µM,1.55 µM,1.96 µM,,,3.26 µM,0.468 µM,3.23 µM,4.61 µM,> 100 µM,2.26 µM,7.64 µM
C=C(CN(C)Cc1ccccc1)c1ccc(C(=O)Nc2ccccc2N)cc1,,,14.4 µM,24.5 µM,12.2 µM,13.8 µM,,,1.56 µM,3.36 µM,2.2 µM,,,3.34 µM,0.739 µM,5.78 µM,3.66 µM,33.6 µM,1.42 µM,5.7 µM
C/C=C/C=C/CCCCCCCCCCCCC[C@]1(OC)C=CC(CC(=O)OC)OO1 (some centres undefined),48 µM,45.6 µM,37.7 µM,,29.5 µM,,,,17.6 µM,,16 µM,,,,,,,,,
COc1cc(/C=C2\NC(=S)C3Cc4c(OC)c(C)c(OC)c(OC)c4C2N3C)c(OC)c(C)c1OC (centres undefined),> 100 µM,> 100 µM,> 100 µM,> 100 µM,,> 100 µM,,,,,,,> 100 µM,,,,,,,
